Source: PubChem BioAssay AID179 (DTP/NCI, 2004)
Several values for one entry are separate records, joined by “and”; a condition that tells them apart may be missing. Identical values can stand only once. Activity calls are given as the source filed them.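 The calls were made as follows: active = compounds giving half or more protection of infected cells from virus-caused growth loss, again on retest; inactive = the rest.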

Test system: CEM cells HIV-1 protection, formazan growth assay
Test: NCI AIDS Antiviral Assay
Conditions: for IC50: measured here: growth of uninfected CEM cells
Summary of the method: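 Category rules: moderately active means at least 50% protection on retest, and confirmed active means 100% protection reproducibly. The underlying data came from a formazan growth assay in HIV-1-infected CEM cells.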

Structure (SMILES) | outcome | EC50 | IC50
CCC(C)C(=O)O[C@H]1[C@H](OC(C)=O)[C@H](OC(C)=O)[C@@]2(COC(C)=O)C(OC(C)=O)C(=O)[C@@H]3[C@@H](OC(C)=O)[C@]2(O[C@@]3(C)COC(=O)c2ccccc2)[C@@]1(C)O (stereo partly specified) | inactive | – | –
CC(C)=C1CCC(C)C/C1=N\NC(N)=S (stereo unspecified) | – | > 200 µM | 19.5 µM
O=S1(=O)CC2C1C1(c3ccccc3)OC2(c2ccccc2)c2ccccc21 (stereo unspecified) | – | > 200 µM | 20 µM
Cn1c(=O)c2c(c3cc(O)ccc31)OC(C(C)(C)O)C2 (stereo unspecified) | – | > 617 µM | 112 µM
O=C(Nc1ccc(C2=NCCN2)c(O)c1)c1ccc(C(=O)Nc2ccc(C3=NCCN3)c(O)c2)cc1 | – | 95.5 µM | > 200 µM
O=C1NC(=O)C(=Nc2cccc3c(=O)[nH][nH]c(=O)c23)C(c2nc3ccccc3s2)C1=O (stereo unspecified) | inactive | – | –
CNC(=O)Nn1c(SC)nc2ccccc21 | – | > 200 µM | > 200 µM
CN(C(=O)Cc1ccccc1)n1cn[n+](CC(=O)OC(C)(C)C)c1 | – | > 200 µM | > 200 µM
COC(=O)c1c(C(=O)OC)c2c(-c3ccccc3)cc3cccc1n32 | – | > 8.13 µM | > 8.13 µM
CCCCS(=O)CCC(N)C(=O)O (stereo unspecified) | – | > 100 µM | > 100 µM
COc1cc(/C=C/C(=O)c2c(=O)o[nH][n+]2-c2ccccc2)ccc1[O-] | inactive | – | –
O=S1c2ccccc2S(=O)c2ccccc21 (stereo unspecified) | – | > 200 µM | > 200 µM
CN1CCCC(=O)C1CC[C@H]1C(=O)CCCN1C (stereo partly specified) | – | > 269 µM | > 269 µM
CCOC(=O)/C(=C\c1c[nH]c2ccccc12)P(=O)(OCC)OCC | – | > 200 µM | 38 µM
CCCC(=O)c1ccc2c(ccc(=O)n2C)c1 | – | > 112 µM | 102 µM
CCCN(CCCC(NC(C)=O)C(=O)NCc1ccccc1)C(=O)NC (stereo unspecified) | – | > 692 µM | > 692 µM
COc1ccccc1C1=NC(C)(C)CO1 | – | > 1230 µM | > 1230 µM
O=c1c(Cc2ccccc2)c(-c2ccccc2)[nH]n1C1=NCCN1 | – | > 200 µM | 19.1 µM
O=C(O)c1ccc(CS(=O)(=O)c2ccc(Cl)cc2)c([N+](=O)[O-])c1 | – | > 708 µM | 324 µM
O=C(Nc1ccc([N+](=O)[O-])cc1)OCC(COc1ccccc1)OC(=O)Nc1ccc([N+](=O)[O-])cc1 (stereo unspecified) | – | > 200 µM | 7.76 µM
CCOCc1c(C(=O)NCCO)[n+](=O)c2ccccc2n1[O-] | – | > 44.7 µM | > 44.7 µM
O=C(Cc1c(C(=O)Nc2ccccc2)sc(C(=O)Nc2ccccc2)c1CC(=O)Nc1ccccc1)Nc1ccccc1 | inactive | – | –

Structure (SMILES) | outcome | EC50 | IC50
CCOC(=O)C(C)C(CCC#N)(C(=O)OCC)C(=O)OCC (stereo unspecified) | – | > 200 µM | > 200 µM
CC(SC(=S)N1CCOCC1)c1cc2oc(=O)n(C)c2cc1Cl (stereo unspecified) | – | > 10 µM | > 10 µM
CN(C)CCCn1c2c3ccccc3ccc2c2oc(=O)c3ccccc3c21 | – | > 33.1 µM | 1.62 µM
COc1ccc(SCc2cc(OC)c(OC)c(OC)c2)cc1OC | – | > 200 µM | 45.7 µM
COc1ccc(Nc2nc3c(s2)c(C)c(O)c2ccccc23)cc1 | – | > 2.88 µM | 0.851 µM
CCCCCCCCCCCCNC(=O)NCC(OCC)OCC | – | > 200 µM | 31.6 µM
N#CC(Sc1ccccc1)c1ccccc1 (stereo unspecified) | – | > 44.7 µM | > 44.7 µM
CC1(C)OC[C@@H]([C@H](O)C2C=CC(=O)S2)O1 (stereo partly specified) | inactive | – | –
CCCCNC(=O)c1cc(NC(=O)c2ccc(C(=O)Nc3cc(C(=O)NCCCC)cc(C4N=CCN4)c3)cc2)cc(C2=NCCN2)c1 (stereo unspecified) | – | 13.2 µM | > 100 µM
CCC1(CC)C(=O)N(C(=O)c2cc(OC)c(OC)c(OC)c2)N(C(=O)c2cc(OC)c(OC)c(OC)c2)C1=O | – | > 200 µM | 10.7 µM
O=C(O)c1c(O)ccc(N=Nc2ccc(/C=C/c3ccc(N=Nc4ccc(O)c(C(=O)O)c4O)cc3S(=O)(=O)O)c(S(=O)(=O)O)c2)c1O | – | > 14.5 µM | > 14.5 µM
O=c1c2cc(Br)ccc2nc(-c2ccccc2)n1NCC1(O)OCC(O)C(O)C1O (stereo unspecified) | inactive | – | –
O=C(Nn1c(=S)[nH][nH]c1=S)c1ccccc1 | – | > 200 µM | > 200 µM
Cc1cc(C)c2c(c1)C(=O)c1c(O)ccc(O)c1C2=O | inactive | – | –
C[N+](C)(C)c1ccc2c(c1)N(S(C)(=O)=O)CC2CCl (stereo unspecified) | inactive | – | –
Cc1noc(NS(=O)(=O)c2ccc(N)cc2)c1C | – | > 200 µM | > 200 µM
COC1CCCCC1C(N)C(=O)O (stereo unspecified) (tested in a mixture with another compound) | – | > 200 µM | > 200 µM
Nc1c(S)cc(O)c2c1C(=O)c1ccccc1C2=O | – | > 100 µM | > 100 µM
c1cc2ccc1C1NCCCN1CCN1CCCNC1c1ccc(cc1)C1NCCCN1CCN1CCCNC21 (stereo unspecified) | – | > 13.2 µM | 9.33 µM
Cc1ccc(-c2sc(-c3ccc(C)cc3)c3c2C2CCC3C2)cc1 | – | > 200 µM | > 200 µM
O=C(c1ccccc1[N+](=O)[O-])C(Br)C(Br)c1ccc(Cl)c(Cl)c1 (stereo unspecified) | – | > 20 µM | 1 µM
N#CCCN(CCC#N)c1ccc(C(Sc2ccccc2)C(NC(=O)c2cc([N+](=O)[O-])ccc2Cl)C(=O)Sc2ccccc2)cc1 (stereo unspecified) | – | > 10.7 µM | 3.55 µM

Structure (SMILES) | outcome | EC50 | IC50
Cc1ccc2c(c1)C(=O)/C(=C1/CCc3ccc(C)cc31)C2 | – | > 200 µM | > 200 µM
O=c1[nH]c(=O)n(C2CC(O)C(CO)O2)cc1C#Cc1ccc(C(F)(F)F)cc1 (stereo unspecified) | – | > 631 µM | 91.2 µM
COC(=O)c1cc(C(=CCC(=O)O)c2cc(Cl)c(OC)c(C(=O)OC)c2)cc(Cl)c1OC | – | > 200 µM | 97.7 µM
CN1COc2ccc(Br)cc2C1 | inactive | – | –
N#Cc1ccc(N2CCOCC2)cc1 | – | 195 µM | > 200 µM
Nc1ccc(C(=O)N/C(=C\c2ccc3c(c2)OCO3)c2nc3ccccc3s2)cc1 | inactive | – | –
CCOC(=O)C1=CN(Cc2ccccc2)C2ON=C(c3ccc(Cl)cc3)C2C1 (stereo unspecified) | – | > 200 µM | 31.6 µM
CC(=O)Oc1c(N2CCCCC2)c(C(=O)c2ccccc2)c(O)c2ccn(N(C)C)c12 | – | > 200 µM | 8.32 µM
COP(=O)(OC)/C(=C/c1cn(C(c2ccccc2)(c2ccccc2)c2ccccc2)cn1)NC=O | – | > 200 µM | > 200 µM
COc1cc2cnc3c4ccccc4ccc3c2cc1OC | – | > 64.6 µM | > 64.6 µM
CCOC(=O)N/N=C(\Cc1ccccc1)OCC | – | > 200 µM | > 200 µM
O=C1C2C3CC(C4C5C=CC(C5)C34)C2C2C3CC(C12)C1C2C=CC(C2)C31 (stereo unspecified) | – | > 28.8 µM | > 28.8 µM
Cc1c(C(=O)CSc2nc3ccccc3[nH]2)c(=O)n(-c2ccccc2)n1C | – | > 95.5 µM | > 95.5 µM
CC1=C(O)C(=O)C2C(=O)C1C(C)C2c1ccc(Cl)cc1 (stereo unspecified) | – | > 123 µM | > 123 µM
C[N+](C)(C)CCOP(=O)(O)OP(=O)([O-])OCC1CCC(n2ccc(N)nc2=O)O1 (stereo unspecified) | – | 0.575 µM and 0.178 µM | > 200 µM
COc1ccc(-c2cc(-c3ccccc3)nc(N)c2-c2ccc3ccccc3c2)cc1 | – | > 200 µM | 2.45 µM
COC(=O)[C@@]12CC[C@]1(C(=O)OC)C1C(C)=CC(=O)O[C@@]12C (stereo partly specified) | – | > 200 µM | > 200 µM
CCn1cnc2c(NC(C)=O)ncnc21 | – | > 200 µM | > 200 µM
OCc1ccc2ccc3ccc(CO)nc3c2n1 | – | > 389 µM | 263 µM
CN(C)C(=O)NC(=S)N(C)C | inactive | – | –
C(=C\c1cnc2ccccc2n1)/c1ccc2c(c1)OCO2 | – | > 200 µM | > 200 µM
C=C1C(=O)[C@]23C[C@H]1CC(O)[C@H]2C1(CCC[C@@](C)(COC(C)=O)C1C=O)COC3=O (stereo partly specified) | inactive | – | –

Structure (SMILES) | outcome | EC50 | IC50
CS(=O)(=O)Nc1ccc2ccccc2c1-c1c(NS(C)(=O)=O)ccc2ccccc12 | – | > 50.1 µM | 47.9 µM
COc1cc2c3c(c1)nc(C)n3C(=O)CS2 | – | > 200 µM | > 200 µM
CCC[CH2][Sn]([CH2]CCC)([O]c1cccc2cccnc12)[O]c1cccc2cccnc12 | inactive | – | –
CCOC(=O)CC1COc2ccc3c(c21)OCO3 (stereo unspecified) | – | > 525 µM | 339 µM
COc1ccc(C(=O)C#Cc2cnc(OC)nc2OC)cc1 | – | > 2 µM | 0.363 µM
CC(C)(C)OC(=O)N1CCC(NC(=O)NC2CCN(C(=O)OC(C)(C)C)CC2)CC1 | – | > 200 µM | > 200 µM
CCc1cc(-c2ccc(OC)cc2)c(C#N)c(=S)n1C1OC(CO)C(O)C(O)C1O (stereo unspecified) | – | > 200 µM | 126 µM
COc1cccc2c1C(=O)c1c(O)c3c(c(O)c1C2=O)CC1(O)CC3OC1(C)OC (stereo unspecified) | – | > 4.57 µM | > 4.57 µM
O=c1n(CC2CO2)c(=O)n(CC2CO2)c(=O)n1CC1CO1 (stereo unspecified) | – | > 832 µM | 1.51 µM
Cc1cc2[nH]c3c(C#N)c4c(c(=O)n3c2cc1C)CCCC4 | – | > 200 µM | > 200 µM
Cc1cc(C)c2cnnn2n1 | – | > 1700 µM | > 1700 µM
CSc1nc2[nH]c(=O)n(OS(=O)(=O)c3ccccc3)c(=O)c2n1Cc1ccccc1 | – | > 200 µM | 105 µM
O=C1CC(=O)NC(=NNS(=O)(=O)c2ccc(Cl)cc2)N1 | – | > 200 µM | > 200 µM
c1ccc2c(c1)Cc1c(Cc3csc4ccccc34)ccc3cccc-2c13 | – | > 7.24 µM | > 7.24 µM
COc1cc(N(CCC#N)CCC#N)ccc1/C(N=Nc1ccc([N+](=O)[O-])cc1)=N/NC(=O)c1cc(Br)ccc1O | – | > 200 µM | 33.1 µM
O=C(O)c1ccc(Nc2cnc3ccc(C(F)(F)F)cc3n2)cc1 | – | > 200 µM | 11.2 µM
Nc1nnn(N)n1 | – | > 200 µM | > 200 µM
O=C1NNC2(C(=O)N1)c1ccccc1-c1ccccc12 | – | > 200 µM | 93.3 µM
O=C1C[C@@H]2[C@@H](C=CC23CCCC3)N1O | inactive | – | –
CC1=NC(=Cc2ccccc2O)C(=O)N1n1c(-c2ccccc2)nc2ccccc2c1=O | – | > 200 µM | 12.6 µM
C[C@]12CCC[C@H](O)[C@H]1C[C@H](CO)CC2 | inactive | – | –
COc1ccc(NC(=O)CC/C(CC(=O)c2ccco2)=N/Nc2ccc([N+](=O)[O-])cc2[N+](=O)[O-])cc1 | – | > 52.5 µM | 30.9 µM
